Measurements as given in publication PMC8145110, “Design, Synthesis, and Antibacterial Screening of Some Novel Heteroaryl-Based Ciprofloxacin Derivatives as DNA Gyrase and Topoisomerase IV Inhibitors” (Pharmaceuticals, 2021).
In brackets after ≈: the same amount, converted by molar mass.

Assays:
[1] = tested on: Staphylococcus aureus (ATCC 12600); assay: Kirby-Bauer disc diffusion, S. aureus; type: cell-based; settings: % of ciprofloxacin
Procedure: (§1) An updated Kirby-Bauer disc diffusion method was used to assess the antimicrobial activity of the tested samples [32, 33, 34, 35]. Using ciprofloxacin as a reference drug, synthetic compounds 1–21 were tested in vitro for antibacterial activity against S. aureus and B. subtilis as Gram-positive strains and E. coli and P. aeruginosa as Gram-negative strains. […]. […].
(§2) The cultures used were collected from the Cairo University’s Microanalytical Centre, Faculty of Science. An updated Kirby-Bauer disc diffusion method was applied for antimicrobial activities of the tests 1–21 compounds [32, 33, 34, 35]. See Appendix A.
The cultures used were collected from the Cairo University’s Microanalytical Centre, Faculty of Science. An updated Kirby-Bauer disc diffusion method was applied for the antimicrobial activities of the tests for compounds 1–21 [28]. Shortly after, 10 mL of fresh medium was grown to 100 μL bacteria/food until a count of 10^8 cells/mL or 10^5 cells/mL was achieved. One hundred μL microbial suspension was spread over agar plates that suited the broth in which it was held. The selected colonies of each organism that may play a pathogenic function should be from the primary agar plates and tested by the disc diffusion method for susceptibility. Plates inoculated with filamentous fungi as Aspergillus flavus were incubated at 25 °C for 48 h; Gram positive bacteria as Staphylococcus aureus (ATCC 12600, Microanalytical center, Cairo, Egypt), Bacillus subtilis (ATCC 6051); Gram negative bacteria as Escherichia coli (ATCC 11775), Pseudomonas aeuroginosa (ATCC 10145) were incubated at 35–37 °C for 24–48 h and yeast as Candida albicans (ATCC 7102) was incubated at 30 °C for 24–48 h and, then the diameters of the inhibition zones were measured in millimeters. Standard discs of ciprofloxacin (antibacterial agent), fluconazole (antifungal agent) served as positive controls for antimicrobial activity, but filter discs impregnated with 10 µL of solvent (distilled water, chloroform, DMSO) were used as a negative control. Blank paper disks (Schleicher and Schuell, Cytiva, Spain) with a diameter of 8.0 mm were impregnated with 10 µL of tested concentration of the stock solutions. When a filter paper disc impregnated with a tested chemical is placed on agar, the chemical will diffuse from the disc into the agar. This diffusion will place the chemical in the agar only around the disc. The solubility of the chemical and its molecular size will determine the size of the area of chemical infiltration around the disc. […] For the disc diffusion, the zone diameters were measured with slipping calipers of the National Committee for Clinical Laboratory Standards, and the results are given in Table 1. […]

E. coli topoisomerase IV = biological target: T1, E. coli topoisomerase IV (Escherichia coli, UniProt P0AFI2+P20083); assay: E. coli topoisomerase IV assay; type: biochemical
T1 construct: purchased Inspiralis
T1 sequence (P0AFI2 whole entry): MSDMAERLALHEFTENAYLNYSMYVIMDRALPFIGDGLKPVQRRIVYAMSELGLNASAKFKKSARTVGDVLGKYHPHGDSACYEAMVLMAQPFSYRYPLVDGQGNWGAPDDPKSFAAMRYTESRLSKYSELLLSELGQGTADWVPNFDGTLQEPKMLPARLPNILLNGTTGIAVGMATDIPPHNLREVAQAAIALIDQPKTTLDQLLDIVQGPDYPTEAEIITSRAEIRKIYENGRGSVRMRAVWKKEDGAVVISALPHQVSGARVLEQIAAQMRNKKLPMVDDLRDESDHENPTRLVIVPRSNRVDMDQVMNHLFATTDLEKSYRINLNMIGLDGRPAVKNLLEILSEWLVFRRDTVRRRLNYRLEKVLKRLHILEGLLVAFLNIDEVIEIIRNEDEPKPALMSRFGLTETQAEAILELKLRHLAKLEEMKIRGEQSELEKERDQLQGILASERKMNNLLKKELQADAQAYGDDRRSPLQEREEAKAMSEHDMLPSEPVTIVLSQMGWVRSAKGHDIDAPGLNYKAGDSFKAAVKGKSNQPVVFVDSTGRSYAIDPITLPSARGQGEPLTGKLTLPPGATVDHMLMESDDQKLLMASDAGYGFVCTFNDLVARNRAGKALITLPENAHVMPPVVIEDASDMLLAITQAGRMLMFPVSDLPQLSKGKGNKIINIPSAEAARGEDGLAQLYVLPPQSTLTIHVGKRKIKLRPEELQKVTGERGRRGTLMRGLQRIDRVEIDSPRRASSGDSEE
T1 sequence (P20083 whole entry): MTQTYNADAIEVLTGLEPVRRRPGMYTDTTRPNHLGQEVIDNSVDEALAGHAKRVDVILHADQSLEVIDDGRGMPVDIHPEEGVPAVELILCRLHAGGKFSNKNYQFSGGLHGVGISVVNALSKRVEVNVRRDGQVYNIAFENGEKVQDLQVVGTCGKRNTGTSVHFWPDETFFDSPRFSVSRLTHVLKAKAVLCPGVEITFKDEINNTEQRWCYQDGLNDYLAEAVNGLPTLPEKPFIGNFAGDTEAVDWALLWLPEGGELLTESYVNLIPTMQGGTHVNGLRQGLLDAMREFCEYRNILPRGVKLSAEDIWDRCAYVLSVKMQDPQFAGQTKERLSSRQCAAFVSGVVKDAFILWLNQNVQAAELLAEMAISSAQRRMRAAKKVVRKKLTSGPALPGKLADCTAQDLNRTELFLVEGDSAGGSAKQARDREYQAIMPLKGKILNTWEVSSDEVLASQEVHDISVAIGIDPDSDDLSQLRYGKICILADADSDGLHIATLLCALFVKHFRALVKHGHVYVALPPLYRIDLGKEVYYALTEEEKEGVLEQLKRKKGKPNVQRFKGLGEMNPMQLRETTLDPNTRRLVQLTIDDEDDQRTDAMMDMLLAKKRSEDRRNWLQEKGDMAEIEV
Procedure: (§3) IC50 assay determination was carried out in accordance with the procedures previously stated (see Appendix A).
(§4) Inhibitory activities were determined in an assay from Inspiralis on streptavidin-coated 96-well microtiter plates from Thermo scientific Pierce. […] After washing off the unbound oligonucleotide, the enzyme test was performed. […] After that, the TF buffer (50 mM NaOAc with pH 5.0, 50 mM NaCl and 50 mM MgCl2) was added to terminate the enzymatic reaction. After additional incubation for 30 min at rt, during which biotin-oligonucleotide-plasmid triplex was 19 formed, the unbound plasmid was washed off using TF buffer and SybrGOLD in T10 buffer (10 mM Tris HCl with pH 8.0 and 1 mM EDTA) was added. […] Initial screening was done at 100 or 10 μM concentration of inhibitors. […] GraphPad Prism software was used to calculate the IC50 values. The result is given as the average value of three independent measurements. […] Determination of inhibitory activities on E. coli and S. aureus Topoisomerase IV IC50 values were determined in an assay from Inspiralis on streptavidin-coated 96-well microtiter plates from Thermo scientific Pierce. […] After washing off the unbound oligonucleotide, the enzyme test was performed. The reaction volume of 30 μL in buffer (40 mM HEPES KOH with pH 7.6, 100 mM potassium glutamate, 10 mM magnesium acetate, 10 mM DTT, 1 mM ATP, 0.05 mg/mL albumin) contained 1.5 U of topoisomerase IV from E. coli or S. aureus, 0.75 μg of pNO1 supercoiled plasmid, and 3 μL solution of the inhibitor in DMSO (10%) and Tween 20 (0.008%). […] After additional incubation for 30 min at rt, during which triplex (biotin-oligonucleotide-plasmid) was formed, the unbound plasmid was washed off using TF buffer and SybrGOLD in T10 buffer (10 mM Tris HCl with pH 8.0 and 1 mM EDTA) was added. […] Initial screening was done at 100 or 10 μM concentration of inhibitors. […] GraphPad Prism software was used to calculate the IC50 values. The result is given as the average value of three independent measurements.

B. subtilis = assay: MIC, two-fold serial dilution, B. subtilis; type: cell-based; settings: Bacillus subtilis; read-out: Minimum Inhibitory Concentration (MIC), B. subtilis
Procedure: (§5) Table 2, using the reference drug ciprofloxacin, was presented with the MICs (minimal inhibitory concentrations) of these compounds against tested bacteria. […] The nature of aromatic substitution in the oxadiazole moiety tends to be correlated with higher antibacterial effects and the activity increased with (Ar) in the order of 2-pyridyl ≥ 3-pyridyl > 4-pyridyl > 2-Cl-Ph > 2-naphthyl.
(§6) On 96-well microtiter plates and […] of fresh bacterial culture of a single McFarland unit overnight, a double serial dilution of each compound […] in sterile standard saline was prepared for every single source well. Ciprofloxacin antibiotic (5 mg/mL^−1) and normal saline were included as standard references in each assay (see Appendix A).
(§7) In 96-well microtiter plates and […] of fresh bacterial culture of a single McFarland unit overnight, a double serial dilution of each compound […] in sterile standard saline was prepared for every single source well. Ciprofloxacin antibiotic (5 mg/mL^−1) and normal saline were included as standard reference in each assay. The plates were incubated at 37 °C overnight. As an indicator of bacterial growth, […] of p-iodonitrotetrazolium violet (INT) was added to each well and incubated at 37 °C for 30 min. […] The colorless tetrazolidium salt acts as an electron accepter and is reduced to a red colored formazan product by biological activity organisms. Where bacterial growth was inhibited, the solution in the well remained clear after incubation with INT.

[2] = Cell viability assay (MTT); type: cell-based; parameters: dose or concentration left out as unconfirmed; settings: human, MCF-10A mammary gland epithelial cells, four days
Procedure: A human mammary gland epithelial cell line (MCF-10A) was used to conduct a cell viability assay. Compounds 2–6 were incubated with MCF-10A cells for four days, and the viability of the cells was determined using the 3-(4,5-dimethylthiazol-2-yl)-2,5-diphenyltetrazolium bromide (MTT) assay. All compounds had no cytotoxic effects, and the viability of the cells was greater than 85% for most of the compounds examined […], as shown in Table 4.
MTT Assay was performed to investigate the effect of compounds 2–6 on the viability of mammary epithelial cells (MCF-10A) (see Appendix A).

E. coli = assay: MIC, two-fold serial dilution, E. coli; type: cell-based; settings: Escherichia coli; read-out: Minimum Inhibitory Concentration (MIC), E. coli
Procedure: as §5, §6, §7

P. aeruginosa = assay: MIC, two-fold serial dilution, P. aeruginosa; type: cell-based; settings: Pseudomonas aeruginosa; read-out: Minimum Inhibitory Concentration (MIC), P. aeruginosa
Procedure: as §5, §6, §7

S. aureus = assay: MIC, two-fold serial dilution, S. aureus; type: cell-based, Staphylococcus aureus; settings: Staphylococcus aureus; read-out: Minimum Inhibitory Concentration (MIC), S. aureus
Procedure: as §5, §6, §7

E. coli DNA gyrase = biological target: T2, E. coli DNA gyrase (Escherichia coli, UniProt P0AES4+P0AES6); assay: E. coli DNA gyrase assay; type: biochemical
T2 construct: purchased Inspiralis
T2 sequence (P0AES4 whole entry, one chain of several): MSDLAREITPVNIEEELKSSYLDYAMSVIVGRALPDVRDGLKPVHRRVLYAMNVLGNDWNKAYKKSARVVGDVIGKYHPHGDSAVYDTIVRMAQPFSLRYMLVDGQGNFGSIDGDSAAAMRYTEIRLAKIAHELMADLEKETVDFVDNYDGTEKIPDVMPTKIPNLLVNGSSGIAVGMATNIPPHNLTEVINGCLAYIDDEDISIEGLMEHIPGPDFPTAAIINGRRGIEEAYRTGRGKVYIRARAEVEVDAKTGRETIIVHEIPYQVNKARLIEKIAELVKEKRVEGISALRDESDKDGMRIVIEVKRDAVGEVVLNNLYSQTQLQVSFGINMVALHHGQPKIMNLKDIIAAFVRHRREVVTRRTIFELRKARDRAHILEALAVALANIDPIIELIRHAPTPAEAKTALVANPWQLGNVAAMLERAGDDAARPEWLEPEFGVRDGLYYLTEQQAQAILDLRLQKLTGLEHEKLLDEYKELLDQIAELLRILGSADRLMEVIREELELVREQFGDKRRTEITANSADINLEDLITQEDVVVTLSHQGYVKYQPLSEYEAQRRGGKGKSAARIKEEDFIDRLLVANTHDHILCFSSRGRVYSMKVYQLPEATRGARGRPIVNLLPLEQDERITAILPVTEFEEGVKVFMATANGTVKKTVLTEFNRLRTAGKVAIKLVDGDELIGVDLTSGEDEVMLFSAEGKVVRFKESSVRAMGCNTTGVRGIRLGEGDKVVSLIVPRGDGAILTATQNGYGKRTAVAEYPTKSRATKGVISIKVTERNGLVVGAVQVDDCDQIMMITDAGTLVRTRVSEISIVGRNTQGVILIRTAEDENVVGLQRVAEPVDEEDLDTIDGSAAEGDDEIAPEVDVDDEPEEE
Procedure: as §3, §4

[3] = tested on: Escherichia coli (ATCC 11775); assay: Kirby-Bauer disc diffusion, E. coli; type: cell-based; settings: % of ciprofloxacin
Procedure: as §1, §2
The cultures used were collected from the Cairo University’s Microanalytical Centre, Faculty of Science. An updated Kirby-Bauer disc diffusion method was applied for the antimicrobial activities of the tests for compounds 1–21 [28]. Shortly after, 10 mL of fresh medium was grown to 100 μL bacteria/food until a count of 10^8 cells/mL or 10^5 cells/mL was achieved. One hundred μL microbial suspension was spread over agar plates that suited the broth in which it was held. The selected colonies of each organism that may play a pathogenic function should be from the primary agar plates and tested by the disc diffusion method for susceptibility. Plates inoculated with filamentous fungi as Aspergillus flavus were incubated at 25 °C for 48 h; Gram positive bacteria as Staphylococcus aureus (ATCC 12600, Microanalytical center, Cairo, Egypt), Bacillus subtilis (ATCC 6051); Gram negative bacteria as Escherichia coli (ATCC 11775), Pseudomonas aeuroginosa (ATCC 10145) were incubated at 35–37 °C for 24–48 h and yeast as Candida albicans (ATCC 7102) was incubated at 30 °C for 24–48 h and, then the diameters of the inhibition zones were measured in millimeters. […] For the disc diffusion, the zone diameters were measured with slipping calipers of the National Committee for Clinical Laboratory Standards, and the results are given in Table 1. […]

[4] = tested on: Bacillus subtilis (ATCC 6051); assay: Kirby-Bauer disc diffusion, B. subtilis; type: cell-based; settings: % of ciprofloxacin
Procedure: as §1, §2
(§8) The cultures used were collected from the Cairo University’s Microanalytical Centre, Faculty of Science. An updated Kirby-Bauer disc diffusion method was applied for the antimicrobial activities of the tests for compounds 1–21 [28]. […] Plates inoculated with filamentous fungi as Aspergillus flavus were incubated at 25 °C for 48 h; Gram positive bacteria as Staphylococcus aureus (ATCC 12600, Microanalytical center, Cairo, Egypt), Bacillus subtilis (ATCC 6051); Gram negative bacteria as Escherichia coli (ATCC 11775), Pseudomonas aeuroginosa (ATCC 10145) were incubated at 35–37 °C for 24–48 h and yeast as Candida albicans (ATCC 7102) was incubated at 30 °C for 24–48 h and, then the diameters of the inhibition zones were measured in millimeters. […]

[5] = tested on: Pseudomonas aeuroginosa (ATCC 10145); assay: Kirby-Bauer disc diffusion, P. aeruginosa; type: cell-based, Pseudomonas aeruginosa; settings: % of ciprofloxacin
Procedure: as §1, §2, §8

[6] = tested on: most of the pathogens tested; parameters: method as in doi:10.1002/jhet.2760; settings: cited from earlier work
[7] = biological target: S. aureus topoisomerase IV; parameters: method as in PMID 29206345; settings: value given in method; read-out: IC50 of internal standard, S. aureus topoisomerase IV; cited from earlier work

## O=C(O)c1cn(C2CC2)c2cc(N3CCN(Cn4nc(-c5ccncc5)oc4=S)CC3)c(F)cc2c1=O [Compound 6, 1-Cyclopropyl-6-fluoro-4-oxo-7-[4-(5-pyridin-4-yl-2-thioxo-[1,3,4]oxadiazol-3-yl-methyl)-piperazin-1-yl]-1,4-dihydro-quinoline-3-carboxylic acid]
[1]
  antibacterial activity relative to ciprofloxacin, S. aureus: 120%
E. coli topoisomerase IV
  IC50: 8.92 ± 0.2 µM
B. subtilis
  MIC: 0.125 µg/mL (≈ 0.239 µM)
[2]
  viability at 4 days: 87%
E. coli
  MIC: 0.125 µg/mL (≈ 0.239 µM)
P. aeruginosa
  MIC: 0.125 µg/mL (≈ 0.239 µM)
S. aureus
  MIC: 0.031 µg/mL (≈ 0.0593 µM)
E. coli DNA gyrase
  IC50: 0.18 ± 0.02 µM

## O=C(O)c1cn(C2CC2)c2cc(N3CCN(CN4C(=O)SC(=Cc5ccccc5)C4=O)CC3)c(F)cc2c1=O [Compound 16, 7-[4-(5-Benzylidene-2,4-dioxo-thiazolidin-3-ylmethyl)-piperazin-1-yl]-1-cyclo-propyl-6-fluoro-4-oxo-1,4-dihydro-quinoline-3-carboxylic acid]
[1]
  antibacterial activity relative to ciprofloxacin, S. aureus: 85%
[3]
  antibacterial activity relative to ciprofloxacin, E. coli: 93%
other
  melting point: 237 °C
[4]
  antibacterial activity relative to ciprofloxacin, B. subtilis: 93%
[5]
  antibacterial activity relative to ciprofloxacin, P. aeruginosa: 93%

## O=C(O)c1cn(C2CC2)c2cc(N3CCN(Cn4nc(CN5CCSCC5)oc4=S)CC3)c(F)cc2c1=O [I]
[6]
  times more potent than ampicillin: > 41 times

## CO[C@@H]1[C@@H](OC(N)=O)[C@@H](O)[C@H](Oc2ccc3c(O)c(NC(=O)c4ccc(O)c(CC=C(C)C)c4)c(=O)oc3c2C)OC1(C)C [Novobiocin]
[7]
  IC50: 26.7 µM
